# Measured values published in patent US20250381165A1, “Method of Use for Benzofuran Compounds” (Tampa Bay Research Institute, Inc., priority 2024, published 2025).
# Tests used:
# RAW 264.7 = experiment: CellTiter-Glo cell viability, RAW 264.7; type: cell-based, murine; conditions: Mus musculus, RAW264.7
# Experimental: (§1) BzFβ was then examined for its effect on the viability of several murine and human cell lines and primary murine splenocytes. The cytotoxicity of BzFβ was assessed using the CellTiter-Glo […] assay system according to manufacturer's instructions to determine BzFβ's effect on the viability of several murine and human cell lines and primary murine splenocytes.
# DC2.4 cell line (Dr. Kenneth Rock, University of Massachusetts), RAW 264.7 cell line (American Type Culture Collection (ATCC), Manassas, VA; TIB 71), and IMG cell line (Millipore™, Merck KGaA, Burlington, MA; cat. no. SC-C134) were each cultured in complete Dulbecco's Modified Eagle Medium (cDMEM) containing […] glucose (Gibco™, Thermo Fisher Scientific Inc., Waltham, MA; cat. no. 10566-016) and supplemented with GlutaMAX, 50 U/mL penicillin and 50 µg/mL streptomycin (Gibco™; cat. no. 15070-063) and 10% heat inactivated fetal bovine serum (FBS) (R&D Systems, Inc., Minneapolis, MN; cat. no. […]
# (§2) The cytotoxicity of BzFβ was assessed using the CellTiter-Glo cell […] viability assay system […] cat. no. […] CellTiter-Glo was added 1:1 in the media and the level of chemiluminescence was measured using luminescence at wavelengths of 200 nm to 700 nm through a photomultiplier on BioTek's Synergy HTX multimode microplate reader. […]
# [1] = test system: freshly isolated murine splenocytes; experiment: CellTiter-Glo cell viability, primary splenocytes; type: cell-based
# Experimental: as §1
# Six- to ten-week-old female C57BL/6NCrl mice (Charles River Laboratories, Wilmington, MA; cat. no. 027) were maintained in accord with the NIH Guide for the Care and Use of Laboratory Animals. Mice were maintained in an INOVIVE individually ventilated cage system with 3 mice per cage containing 100% virgin wood pulp bedding (Harlan Teklad™, Inotiv Inc., West Lafayette, IN; cat. no. 7099). Water and food (Harlan Teklad™, Inotiv Inc., West Lafayette, IN; cat. no. 8640) were available ad libitum. […] The cell count was determined using the MUSE cell viability kit (MCH600103) and MUSE Cell Analyzer (Luminex Corp, Austin TX). […]
# as §2
# [2] = molecular target: T1, MHC class I/SIINFEKL complex on IMG cells (Mus musculus, UniProt P01901); experiment: SIINFEKL binding to IMG cells, flow cytometry with 25-D1.16 antibody; type: cell-based, murine; conditions: 25 μg/mL BzFβ 0-4 h
# T1 construct: host or cells: IMG cell line
# Experimental: By using an MHC class I H-2K^b specific antibody, a relative comparison of the surface MHC class I was measured before and after BzFβ treatment of DC2.4 and IMG cells. These cells were treated with 25 μg/mL BzFβ for 0-4 h. Cells were centrifuged and washed using cold FACS buffer (DPBS with 5% FBS, 2 mM EDTA, 0.1% sodium azide). Cells were blocked with Fc block (bioLegend™; cat. no. 101320) for 10 min to 15 min to inhibit non-specific binding, followed by staining with fluorophore-conjugated antibodies; one set of cells was stained with the PE-labeled MHC/SIINFEKL specific antibody (clone 25-D1.16, Invitrogen™, Thermo Fisher Scientific Inc., Waltham, MA; cat. no. 12-5743-82), and the other set was stained with the PE-labeled MHC class I H-2Kb specific antibody (AF6-88.5.5.3,Invitrogen™, Thermo Fisher Scientific Inc., Waltham, MA; cat. no. 12-5958-82) […], for 30 min at 4° C. After washing, the cells were subjected to flow cytometric analysis with the Attune NxT Flow Cytometer (Invitrogen). Cells were gated based on live single-cell populations and positives were assessed using isotype controls and fluor-minus-one analysis when needed. Data were analyzed using the Attune NxT software or FlowJo versions 10.7 and 10.8.
# [3] = Solubility in alkaline water; type: physicochemical; conditions: pH 10, aqueous buffer, read-out: limit to the solubility in alkaline water (converted)
# Experimental: Mice were gavaged with BzFβ at doses ranging from 25 mg/kg body to 100 mg/kg body weight, injected intravenously (iv) with 50 μg BzFβ or injected intramuscularly with BzFβ at 25 to 40 mg/kg body weight. For two weeks post-treatment, water intake and weight were monitored. […] The limit to the solubility of BzFβ in alkaline water is 4 mg, therefore no further doses were tested.
# T1 sequence (P01901 22-369): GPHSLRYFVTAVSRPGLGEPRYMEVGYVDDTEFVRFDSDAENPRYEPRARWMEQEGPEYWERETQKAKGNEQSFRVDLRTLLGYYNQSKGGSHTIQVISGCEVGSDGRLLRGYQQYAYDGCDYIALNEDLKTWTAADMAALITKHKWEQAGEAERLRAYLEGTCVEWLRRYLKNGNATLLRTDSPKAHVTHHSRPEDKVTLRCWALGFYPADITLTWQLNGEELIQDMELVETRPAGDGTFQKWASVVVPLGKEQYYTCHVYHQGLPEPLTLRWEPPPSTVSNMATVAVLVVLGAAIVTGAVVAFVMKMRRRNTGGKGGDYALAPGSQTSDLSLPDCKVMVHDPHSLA
# T1 sequence (P01887 21-119 partner): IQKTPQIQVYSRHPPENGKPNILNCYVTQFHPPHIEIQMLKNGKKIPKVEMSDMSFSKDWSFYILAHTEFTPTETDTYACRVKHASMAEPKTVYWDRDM
smiles,measurement,setting,value
"O=C(O)/C=C/c1ccc2occc2c1 [BzFβ, (2E)-3-(1-benzofuran-5-yl)prop-2-enoic acid]",IC50,RAW 264.7,783 µM
same,IC50,"[1]; Mus musculus, Splenocyte, freshly isolated murine splenocytes, CellTiter-Glo",402 µM
same,viability of primary murine splenocytes,[1]; concentrations below 50 µg/mL,minimally affected
same,binding of SIINFEKL to surface MHC class I,[2],able to enhance the binding of SIINFEKL
same,solubility,[3],20 mg/mL
